Test results: patent publication US9428460B2, “N-[4-(quinolin-4-yloxy)cyclohexyl(methyl)](hetero)arylcarboxamides as androgen receptor antagonists, production and use thereof as medicinal products” (BAYER PHARMA AKTIENGESELLSCHAFT, priority 2012, dated 2016)

Tests used:
Format in all cases: cell-based
[1] = tested on: LAPC-4 cells; assay: Proliferation assay with LAPC-4 cells; conditions: Homo sapiens, LAPC4, 168 h; in the presence of 1×10^−9 M R1881, seven days, AlamarBlue; read-out: IC50 LAPC-4 cell proliferation
Procedure: LAPC-4 cells (Klein et al., Nat Med. 3(4): 402-8, 1997) were plated out at a density of 4000 cells per well of a 96-well cell culture plate in RMPI 1640 medium (F1275, Biochrom AG) that contained activated charcoal-treated calf serum (FCS Serum Gold, PAA Laboratories) at a concentration of 10% (v/v). On the next day the cells were treated with the test substances in concentrations from 1×10^−8 to 1×10^−10 M in the presence of 1×10^−9 M R1881. Cell proliferation was determined seven days later after incubation for 2 hours with AlamarBlue (DAL1100, Invitrogen) (Nakayama et al., J Immunol Methods, 204(2): 205-8, 1997). The fluorescence values obtained were normalized, wherein 100% corresponded to the effect of the unstimulated control (without R1881), and 0% corresponded to the effect of the stimulated control (R1881 plus DMSO instead of test substance). The IC50 value was determined by regression analysis based on a four-parameter equation (minimum, maximum, IC50, Hill coefficient; Y=Max+(Min−Max)/(1+(X/IC50)^Hill)).

[2] = tested on: LNCaP cells; assay: Proliferation assay with LNCaP cells; conditions: Homo sapiens, 168 h, in the presence of 1×10^−10 M R1881, seven days, AlamarBlue, read-out: IC50 LNCaP cell proliferation
Procedure: LNCaP cells (Horoszewicz et al., in “Models for Prostate Cancer” (ed. G. P. Murphy), Alan R. Liss, New York 1981, p. 115-132; Horoszewicz et al., Cancer Res. 43: 1809-1818, 1983) were plated out at a density of 2000 cells per well of a 96-well cell culture plate in RMPI 1640 medium (F1275, Biochrom AG), which contained activated charcoal-treated calf serum (FCS Serum Gold, PAA Laboratories) at a concentration of 5% (v/v). Three days later the cells were treated with the test substances in concentrations from 1×10^−8 to 1×10^−10 M in the presence of 1×10^−10 M R1881. Cell proliferation was determined seven days later after incubation for 2 hours with AlamarBlue (DAL1100, Invitrogen) (Nakayama et al., J Immunol Methods, 204(2): 205-8, 1997). The fluorescence values obtained were normalized, wherein 100% corresponded to the effect of the unstimulated control (without R1881), and 0% corresponded to the effect of the stimulated control (R1881 plus DMSO instead of test substance). The IC50 value was determined by regression analysis based on a four-parameter equation (minimum, maximum, IC50, Hill coefficient; Y=Max+(Min−Max)/(1+(X/IC50)^Hill)).

[3] = biological target: human androgen receptor (full length, wild-type form) (Homo sapiens (Human), UniProt P10275); assay: Transactivation assay for the wild-type androgen receptor (PC-3 cells, MMTV-luciferase reporter); conditions: in the presence of R1881, 16 hours
Text: For determining the androgen receptor-dependent transcription, a cellular assay system was used, consisting of PC-3 cells (Kaighn et al., Invest. Urol. 17: 16-23, 1979), which express the human androgen receptor stably and recombinantly (full length, wild-type form, see Swiss-Prot Acc. No. P10275, Entry Version 159, Sequence Version 2). In addition, these PC3 cells contain a stably integrated reporter gene plasmid, which is based on the commercially available plasmid pGL4.14 (#E6691, Promega Corporation, Madison, Wis., USA) and contains the luciferase gene from the American firefly (Photinus pyralis) under the control of the MMTV promoter (Cato et al., EMBO J. 6: 363-368, 1987). These cells were propagated in routine cell culture at 37° C. and 5% CO2 in a medium containing 90% RPMI 1640 (Invitrogen GmbH, Darmstadt, Germany), 100 U penicillin, 100 μg/ml streptomycin (Invitrogen), 4 mM L-glutamine (Invitrogen), 10% fetal calf serum (FCS Serum Gold, PAA Laboratories GmbH, Cölbe, Germany), 600 μg/ml Geneticin (G418-sulphate, Invitrogen) and 10 μg/ml puromycin (Sigma Aldrich GmbH, Germany).
For carrying out the transactivation assays, approx. 1000 cells per well were plated out in a 384-well cell culture plate in a medium that contained activated charcoal-treated calf serum (FCS Serum Gold, PAA Laboratories) at a concentration of 5% (v/v). The test substances were added in a concentration series from 5.12×10^−12 to 1×10^−5 M in the presence of […] R1881 (methyltrienolone). The test plates were incubated overnight at 37° C. and 5% CO2. After 16 hours, 15 μl of Steady Glo Lysis and Detection reagent (E2550, Promega Corporation, Madison, Wis., USA) was added per well and the luminescence was read in a Topcount Luminometer (PerkinElmer, Waltham, Mass., USA) for 4 seconds per well. The luminescence values obtained were normalized, wherein 100% corresponded to the effect of the unstimulated control (without R1881), and 0% corresponded to the effect of the stimulated control (R1881 plus DMSO instead of test substance). The IC50 value was determined by regression analysis based on a four-parameter equation (minimum, maximum, IC50, Hill coefficient; Y=Max+(Min−Max)/(1+(X/IC50)^Hill)).

[4] = biological target: androgen receptor mutant W741C (Homo sapiens (Human), UniProt P10275, W742C); assay: Transactivation assay for the androgen receptor mutant W741C (transfected PC-3 cells); conditions: in the presence of 1×10^−10 M R1881, 24 hours
Procedure: PC-3 cells (Kaighn et al., Invest. Urol. 17: 16-23, 1979) were plated out at a density of 10000 cells per well of a 96-well cell culture plate in RMPI 1640 medium (F1235, Biochrom AG, Berlin, Germany), which contained activated charcoal-treated calf serum (FCS Serum Gold, PAA Laboratories) at a concentration of 5% (v/v). On the next day the cells were transiently transfected with the pSG5-vector (#216201 Stratagene), which contained the sequence of the androgen receptor mutant W741C (Haapala et al., Lab Invest. 81(12): 1647-51, 2001), and with a reporter plasmid based on pGL4.14 (#E6691, Promega) with the luciferase-gene (from Photinus pyralis) under the control of the MMTV promoter (Cato et al., EMBO J. 6: 363-8, 1987). The cells were treated with the test substances in concentrations from 1×10^−8 to 1×10^−10 M in the presence of 1×10^−10 M R1881 and were incubated overnight at 37° C. and 5% CO2. After 24 hours, 100 μl of Steady Glo Lysis and Detection reagent (E2550, Promega) was added per well and the luminescence was read in a Victor3 Luminometer (PerkinElmer) for 1 second per well. The luminescence values obtained were normalized, wherein 100% corresponded to the effect of the unstimulated control (without R1881), and 0% corresponded to the effect of the stimulated control (R1881 plus DMSO instead of test substance). The IC50 value was determined by regression analysis based on a four-parameter equation (minimum, maximum, IC50, Hill coefficient; Y=Max+(Min−Max)/(1+(X/IC50)^Hill)).

[5] = biological target: androgen receptor mutant E709Y (Homo sapiens (Human), UniProt P10275, E710Y); assay: Transactivation assay for the androgen receptor mutant E709Y (transfected PC-3 cells); conditions: in the presence of 1×10^−10 M R1881, 24 hours
Procedure: PC-3 cells (Kaighn et al., Invest. Urol. 17: 16-23, 1979) were plated out at a density of 10000 cells per well of a 96-well cell culture plate in RMPI 1640 medium (F1235, Biochrom AG Berlin, Germany) that contained activated charcoal-treated calf serum (FCS Serum Gold, PAA Laboratories) at a concentration of 5% (v/v). On the next day the cells were transiently transfected with the pSG5-vector (#216201 Stratagene), which contained the sequence of the androgen receptor mutant E709Y (Georget et al., Mol. Endocrinol. 20(4): 724-734, 2006), and with the MMTV-luciferase plasmid (see above, transactivation assay for the androgen receptor mutant W741C). The cells were treated with the test substances in concentrations from 1×10^−8 to 1×10^−10 M in the presence of 1×10^−10 M R1881 and were incubated overnight at 37° C. and 5% CO2. After 24 hours, 100 μl of Steady Glo Lysis and Detection reagent (E2550, Promega) was added per well and the luminescence was read in a Victor3 Luminometer (PerkinElmer) for 1 second per well. The luminescence values obtained were normalized, wherein 100% corresponded to the effect of the unstimulated control (without R1881), and 0% corresponded to the effect of the stimulated control (R1881 plus DMSO instead of test substance). The IC50 value was determined by regression analysis based on a four-parameter equation (minimum, maximum, IC50, Hill coefficient; Y=Max+(Min−Max)/(1+(X/IC50)^Hill)).

Sequence of human androgen receptor (full length, wild-type form) (P10275 whole entry): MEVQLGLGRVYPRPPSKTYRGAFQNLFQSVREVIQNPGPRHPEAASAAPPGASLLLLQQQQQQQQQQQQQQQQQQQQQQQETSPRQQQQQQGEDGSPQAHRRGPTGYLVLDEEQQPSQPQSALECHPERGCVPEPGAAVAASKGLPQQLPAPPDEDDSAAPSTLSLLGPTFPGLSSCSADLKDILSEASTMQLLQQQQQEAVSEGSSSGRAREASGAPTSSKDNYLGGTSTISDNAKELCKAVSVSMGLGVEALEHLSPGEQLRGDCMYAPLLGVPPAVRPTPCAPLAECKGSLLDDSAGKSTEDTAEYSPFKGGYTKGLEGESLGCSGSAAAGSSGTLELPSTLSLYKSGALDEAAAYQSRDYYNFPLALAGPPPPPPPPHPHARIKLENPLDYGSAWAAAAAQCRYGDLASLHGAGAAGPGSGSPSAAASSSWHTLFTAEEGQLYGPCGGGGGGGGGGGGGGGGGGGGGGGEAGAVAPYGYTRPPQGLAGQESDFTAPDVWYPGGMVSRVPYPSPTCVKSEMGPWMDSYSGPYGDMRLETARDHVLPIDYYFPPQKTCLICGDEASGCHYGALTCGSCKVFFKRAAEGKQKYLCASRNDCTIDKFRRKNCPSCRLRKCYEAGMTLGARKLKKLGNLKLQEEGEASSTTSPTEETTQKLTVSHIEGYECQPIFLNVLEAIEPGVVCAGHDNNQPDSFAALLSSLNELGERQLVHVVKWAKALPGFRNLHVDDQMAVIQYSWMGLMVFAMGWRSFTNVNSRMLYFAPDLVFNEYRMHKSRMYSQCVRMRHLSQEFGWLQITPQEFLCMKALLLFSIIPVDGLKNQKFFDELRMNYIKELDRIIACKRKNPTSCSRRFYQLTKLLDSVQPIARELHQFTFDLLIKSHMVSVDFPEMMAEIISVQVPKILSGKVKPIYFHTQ
Sequence of androgen receptor mutant W741C (P10275 whole entry W742C): as the sequence (P10275 whole entry) above, with W742C counted along it
Sequence of androgen receptor mutant E709Y (P10275 whole entry E710Y): as the sequence (P10275 whole entry) above, with E710Y counted along it

Structure (SMILES)	IC50 [1] [nM]	IC50 [2] [nM]	IC50 [3] [nM]	IC50 [4] [nM]	IC50 [5] [nM]
O=C(N[C@H]1CC[C@H](Oc2ccnc3ccccc23)CC1)c1cccc(F)c1 [Example 19, N-{trans-4-(4-quinolyloxy)cyclohexyl}-3-fluorobenzamide]	48	110	32		
N#Cc1cccc2c(O[C@H]3CC[C@H](NC(=O)c4ccc(F)c(F)c4)CC3)ccnc12 [Example 24, N-{trans-4-[(8-cyanoquinolin-4-yl)oxy]cyclohexyl}-3,4-difluorobenzamide]			92	72	14
O=C(NC[C@H]1CC[C@H](Oc2ccnc3ccccc23)CC1)c1cccc(F)c1 [Example 10, N-{[trans-4-(4-quinolyloxy)cyclohexyl]methyl}-3-fluorobenzamide]	130		194	220	175
O=C(NC[C@H]1CC[C@H](Oc2ccnc3ccccc23)CC1)c1ccc(F)c(F)c1 [Example 9, N-{[trans-4-(4-quinolyloxy)cyclohexyl]methyl}-3,4-difluorobenzamide]	45		105	72	56
Cc1cc(C(=O)NC[C@H]2CC[C@H](Oc3ccnc4ccccc34)CC2)no1 [Example 11, N-{[trans-4-(4-quinolyloxy)cyclohexyl]methyl}-5-methylisoxazole-3-carboxamide]	118	260	210		
